We go through one compound from patent publication US20130237496A1, “ACTIVE INGREDIENT OBTAINED FROM CICHORIUM INTYBUS FOR ACTING ON THE BARRIER FUNCTION OF THE SKIN THAT IS SIMILAR TO THAT OF VITAMIN D” (SOCIETE INDUSTRIELLE LIMOUSINE D'APPLICATION BIOLOGIQUE, priority 2012, published 2013).

The structures appear in SMILES notation.

What all share (format): cell-based
Assay [1] concerns Aged reconstructed epidermis. Nature of the assay: Thickness of reconstructed epidermis from aged human keratinocytes (HE coloring). The text has this:
(§1) The object of this study is to evaluate the capacity of a Cichorium intybus root hydrolyzate comprising oligofructosans to promote the construction of a stratified and functional epidermis starting from aged human keratinocytes obtained by successive replications. First, the young human keratinocytes (passage 1: […] Next, the reconstructed epidermis (RE) is obtained after the young or aged human keratinocytes are cultivated. On D12 and D19, the RE are recovered, fixed, dehydrated and included in paraffin. Sections (4 μm) are then made using a microtome. Next, an HE coloring, and then an immunohistological marking of the filaggrin, terminal differentiation marker, are carried out. The display is produced on a microscope coupled with an image analysis system: • The thickness of the epidermis (living cell layers) is measured on the histological sections after the HE coloring, • The synthesis of the filaggrin is proportional to the intensity of the fluorescence (green color) that is present in the reconstructed epidermis.

A further assay concerns filaggrin. In words: Synthesis of filaggrin in reconstructed epidermis from aged human keratinocytes (immunohistological marking).
Text: as §1

The subject of assay [2] is Kallikrein 5 (KLK5 or SCTE). In words: Expression of RNAm by quantitative PCR in normal human keratinocytes: KLK5. Particulars: aged human keratinocytes; 10^−7M; 48 hours. An excerpt: (§2) The study consists in comparing the effect of these different fractions on the expression of the involucrin and the KLK5 by quantitative PCR on normal human keratinocytes, with the result obtained for the active ingredient according to the invention at 1%. The test protocol is the one described in Item II. […]
(§3) The study was done by quantitative PCR on normal human keratinocytes obtained from aged donors (age of greater than 60 years), according to the operating procedure described below. […]
(§4) On D4, the cells are recovered, and the total RNA are extracted. The RNA are reverse-transcripts, and the complementary DNA that are obtained are analyzed by quantitative PCR (quantitative polymerase chain reaction).
(§5) The quantification of the incorporation of fluorescence is measured continuously using a thermal cycler, and the relative quantification is carried out using software.

Another assay relates to Involucrin. Nature of the assay: Expression of RNAm by quantitative PCR in normal human keratinocytes: involucrin. Particulars: aged human keratinocytes; 10^−7M; 48 hours.
Text: as §2, §3, §4, §5

Assay [3] deals with Kruppel-like factor 4 (KLF4). Nature of the assay: Expression of RNAm by quantitative PCR in human keratinocytes of aged donors: KLF4. To be noted: 10^−7M, 48 hours.
Text: (§6) The object of this study is to evaluate the effect of a Cichorium intybus root hydrolyzate comprising oligofructosans (Example 1) on its capacity to modulate the expression of the RNAm coding for epidermal differentiation proteins: • Kruppel-like factor 4 (KLF4): transcription factor involved in the terminal differentiation of keratinocytes, • Cytokeratin 1 (CK1): components of intermediate keratin filaments, • Involucrin: protein of the cornified envelope, • Cystatin E/M: Inhibitor of lysosomal protease cysteines that are involved in the differentiation of keratinocytes and desquamation. • Kallikrein 5 (KLK5 or SCTE): stratum corneum tryptic enzyme involved in desquamation.
(§7) The study was done by quantitative PCR on normal human keratinocytes obtained from aged donors (age of greater than 60 years), according to the operating procedure described below.
(§8) On D0, the human keratinocytes of aged donors are inoculated and incubated at 37° C.
(§9) The cells are then incubated for 48 hours at 37° C.
as §4, §5

For another assay, the system named is Cystatin E/M. Nature of the assay: Expression of RNAm by quantitative PCR in human keratinocytes of aged donors: cystatin E/M. To be noted: 10^−7M, 48 hours.
Text: as §6, §7, §8, §9, §4, §5

For another assay, the system named is Cytokeratin 1 (CK1). Nature of the assay: Expression of RNAm by quantitative PCR in human keratinocytes of aged donors: cytokeratin 1. To be noted: 10^−7M, 48 hours.
Text: as §6, §7, §8, §9, §4, §5

For `C=C1/C(=C\C=C2/CCC[C@]3(C)[C@@H]([C@H](C)CCCC(C)(C)O)CC[C@@H]23)C[C@@H](O)C[C@@H]1O` [Calcitriol, calcitriol], the “Thickness of the Epidermis (μm)” value was 37.8 μm in assay [1] (D12, 10^−8M) and 58.6 (FIG. 1c) μm in assay [1] (D19, 10^−8M). Further, the “Synthesis of Filaggrin (×10^4 UA)” value with filaggrin (D12, 10^−8M) is recorded as 116 ×10^4 UA; in the assay with filaggrin (D19, 10^−8M), 795 (FIG. 2c) ×10^4 UA. Further, the “RNAm Level/Control (%) KLK5” value in assay [2] is listed as “+26%”. Moreover, in the assay on Involucrin, the “RNAm Level/Control (%) Involucrin” value is given as “+42%”. For the same compound, the “RNAm Level/Control (%) KLF4” value in assay [3] is “+25%”. In addition, in the assay on Cystatin E/M, the “RNAm Level/Control (%) Cystatin E/M” value is given as “+65%”. Also, the “RNAm Level/Control (%) Cytokeratin 1” value in the assay on Cytokeratin 1 (CK1) is 0%.
